According to PubChem BioAssay AID330 (DTP/NCI, 2004):
“And” between values parts separate entries of the source, which are not always exact repeats. Equal entries are not always repeated. Inconclusive results and toxic doses are left out.

Tested on: P388 leukemia ip, CD2F1 mice, survival T/C
Experiment: NCI In Vivo Anticancer Drug Screen. Data for tumor model P388 Leukemia (intraperitoneal) in CD2F1 (CDF1) mice
Conditions: endpoint: median survival time, higher = longer survival
How it was run: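 Mice carrying the transplanted tumor received test compound or vehicle. Survival was recorded in each group, and the value is the treated-group measurement divided by that of the vehicle-treated control group.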

[1] = dose: 50.0 mg/kg/injection, schedule: Q01DX009 (ip), vehicle: Klucel (hydroxypropylcellulose) (HPC)
[2] = dose: 50.0 mg/kg/injection, schedule: Q01DX009 (ip), vehicle: saline with Tween-80
[3] = dose: 100.0 mg/kg/injection, schedule: Q01DX009 (ip), vehicle: saline with Tween-80
[4] = dose: 200.0 mg/kg/injection, schedule: Q01DX009 (ip), vehicle: saline with Tween-80
[5] = dose: 6.25 mg/kg/injection, schedule: Q01DX009 (ip), vehicle: saline
[6] = dose: 12.5 mg/kg/injection, schedule: Q01DX009 (ip), vehicle: saline
[7] = dose: 25.0 mg/kg/injection, schedule: Q01DX009 (ip), vehicle: saline

Cc1nn(C(=O)c2cccnc2)c(-c2ccccc2)c1N=Nc1ccc(S(N)(=O)=O)cc1
T/C (dose: 100.0 mg/kg/injection, schedule: Q04DX002 (ip), vehicle: saline with Tween-80): 90 % of control
T/C (dose: 200.0 mg/kg/injection, schedule: Q04DX002 (ip), vehicle: saline with Tween-80): 90 % of control
T/C (dose: 400.0 mg/kg/injection, schedule: Q04DX002 (ip), vehicle: saline with Tween-80): 95 % of control

O=C(CCc1ccc(O)cc1)ON1C(=O)CCC1=O
T/C (dose: 12.5 mg/kg/injection, schedule: Q01DX009 (ip), vehicle: Klucel (hydroxypropylcellulose) (HPC)): 108 % of control
T/C (dose: 25.0 mg/kg/injection, schedule: Q01DX009 (ip), vehicle: Klucel (hydroxypropylcellulose) (HPC)): 109 % of control
T/C [1]: 104 % of control

CCOC(=O)N[C@H]1CCc2cc(OC)c(OC)c(OC)c2-c2ccc(SC)c(=O)cc21
T/C (dose: 0.75 mg/kg/injection, schedule: Q01DX009 (ip), vehicle: other): 163 % of control
T/C (dose: 1.5 mg/kg/injection, schedule: Q01DX009 (ip), vehicle: other): 172 % of control
T/C (dose: 3.0 mg/kg/injection, schedule: Q01DX009 (ip), vehicle: other): 109 % of control and 114 % of control

Clc1ccc2c(Cl)ncnc2c1
T/C [2]: 104 % of control
T/C [3]: 100 % of control
T/C [4]: 90 % of control

FC(F)(F)c1nc2nccnc2[nH]1
T/C (dose: 50.0 mg/kg/injection, schedule: Q04DX003 (ip), vehicle: saline): 100 % of control
T/C (dose: 100.0 mg/kg/injection, schedule: Q04DX003 (ip), vehicle: saline): 100 % of control
T/C (dose: 200.0 mg/kg/injection, schedule: Q04DX003 (ip), vehicle: saline): 100 % of control

O=C(O)C1[S][Sb]([CH](C(=O)O)[CH](C(=O)O)[Sb]2[S]C(C(=O)O)C(C(=O)O)[S]2)[S]C1C(=O)O (stereo not given)
T/C (dose: 50.0 mg/kg/injection, schedule: Q01DX009 (ip), vehicle: saline): 100 % of control
T/C (dose: 100.0 mg/kg/injection, schedule: Q01DX009 (ip), vehicle: saline): 98 % of control
T/C (dose: 200.0 mg/kg/injection, schedule: Q01DX009 (ip), vehicle: saline): 108 % of control

CC(CCCN)Nc1cc2c(c3cccnc13)OCCO2 (stereo not given)
T/C [5]: 90 % of control
T/C [6]: 86 % of control
T/C [7]: 100 % of control

Nc1cccc(N)n1
T/C (dose: 3.12 mg/kg/injection, schedule: Q01DX009 (ip), vehicle: saline): 102 % of control
T/C [5]: 101 % of control (2×) and 103 % of control
T/C [6]: 100 % of control and 109 % of control and 114 % of control
T/C [7]: 112 % of control and 124 % of control

COc1ccc2c(c1)CSC(c1ccccc1)C2O (stereo not given)
T/C [2]: 98 % of control
T/C [3]: 93 % of control
T/C [4]: 99 % of control

N#Cc1ccc(N)cc1C#N
T/C [1]: 94 % of control
T/C (dose: 100.0 mg/kg/injection, schedule: Q01DX009 (ip), vehicle: Klucel (hydroxypropylcellulose) (HPC)): 94 % of control
T/C (dose: 200.0 mg/kg/injection, schedule: Q01DX009 (ip), vehicle: Klucel (hydroxypropylcellulose) (HPC)): 96 % of control

C[C@@H]1CC[C@@]2(NC1)O[C@H]1C[C@H]3[C@@H]4CCC5=CC(=O)CC[C@]5(C)[C@H]4CC[C@]3(C)[C@H]1[C@@H]2C
T/C (dose: 15.0 mg/kg/injection, schedule: Q01DX009 (ip), vehicle: saline with Tween-80): 102 % of control
T/C (dose: 30.0 mg/kg/injection, schedule: Q01DX009 (ip), vehicle: saline with Tween-80): 100 % of control
T/C (dose: 60.0 mg/kg/injection, schedule: Q01DX009 (ip), vehicle: saline with Tween-80): 99 % of control
T/C (dose: 120.0 mg/kg/injection, schedule: Q01DX009 (ip), vehicle: saline with Tween-80): 93 % of control

COc1cc2c(c(OC)c1OC)-c1[nH]ncc1CC2
T/C (dose: 25.0 mg/kg/injection, schedule: Q04DX003 (ip), vehicle: Klucel (hydroxypropylcellulose) (HPC)): 100 % of control
T/C (dose: 50.0 mg/kg/injection, schedule: Q04DX003 (ip), vehicle: Klucel (hydroxypropylcellulose) (HPC)): 103 % of control
T/C (dose: 100.0 mg/kg/injection, schedule: Q04DX003 (ip), vehicle: Klucel (hydroxypropylcellulose) (HPC)): 93 % of control and 94 % of control
T/C (dose: 400.0 mg/kg/injection, schedule: Q04DX003 (ip), vehicle: Klucel (hydroxypropylcellulose) (HPC)): 93 % of control

CCCCCCCCCC(=O)CCCCC
T/C (dose: 100.0 mg/kg/injection, schedule: Q01DX009 (ip), vehicle: other): 115 % of control
T/C (dose: 200.0 mg/kg/injection, schedule: Q01DX009 (ip), vehicle: other): 115 % of control
T/C (dose: 400.0 mg/kg/injection, schedule: Q01DX009 (ip), vehicle: other): 90 % of control

Cn1c(=O)cc(NC2OC(CO)C(O)C(O)C2O)[nH]c1=O (stereo not given)
T/C (dose: 60.0 mg/kg/injection, schedule: Q01DX005 (ip), vehicle: saline): 97 % of control
T/C (dose: 120.0 mg/kg/injection, schedule: Q01DX005 (ip), vehicle: saline): 97 % of control
T/C (dose: 240.0 mg/kg/injection, schedule: Q01DX005 (ip), vehicle: saline): 99 % of control
